The values that follow come from PubChem BioAssay AID1259407 (Chemical Carcinogenesis Research Information System (CCRIS), 2018).

The subject of this series is CCRIS mutagenicity, Ames/micronucleus/aberration tests. Put plainly: CCRIS mutagenicity studies.
Setting [1] is: Test System: AMES SALMONELLA TYPHIMURIUM, Strain/Indicator: TA98, Metabolic Activation: NONE, Method: STANDARD PLATE.
Where [2] appears, read: Test System: AMES SALMONELLA TYPHIMURIUM, Strain/Indicator: TA98, Metabolic Activation: RAT, LIVER, S-9, AROCLOR 1254, Method: STANDARD PLATE.
Setting [3] is: Test System: AMES SALMONELLA TYPHIMURIUM, Strain/Indicator: TA100, Metabolic Activation: NONE, Method: STANDARD PLATE.
Setting [4] is: Test System: AMES SALMONELLA TYPHIMURIUM, Strain/Indicator: TA100, Metabolic Activation: RAT, LIVER, S-9, AROCLOR 1254, Method: STANDARD PLATE.
The mark [5] stands for this setting: Test System: AMES SALMONELLA TYPHIMURIUM, Strain/Indicator: TA1535, Metabolic Activation: NONE, Method: STANDARD PLATE.
[6] abbreviates: Test System: AMES SALMONELLA TYPHIMURIUM, Strain/Indicator: TA1535, Metabolic Activation: RAT, LIVER, S-9, AROCLOR 1254, Method: STANDARD PLATE.
The mark [7] stands for this setting: Test System: AMES SALMONELLA TYPHIMURIUM, Strain/Indicator: TA1537, Metabolic Activation: NONE, Method: STANDARD PLATE.
Where [8] appears, read: Test System: AMES SALMONELLA TYPHIMURIUM, Strain/Indicator: TA1537, Metabolic Activation: RAT, LIVER, S-9, AROCLOR 1254, Method: STANDARD PLATE.
Where [9] appears, read: Test System: AMES SALMONELLA TYPHIMURIUM, Strain/Indicator: TA1538, Metabolic Activation: NONE, Method: STANDARD PLATE.
Where [10] appears, read: Test System: AMES SALMONELLA TYPHIMURIUM, Strain/Indicator: TA1538, Metabolic Activation: RAT, LIVER, S-9, AROCLOR 1254, Method: STANDARD PLATE.

Molecules are shown by their SMILES. Calls of active or inactive are those of the source. How the calls were made is not given here.

On to `CN(CCO)C(=O)Nc1ccccc1`, for which the mutagenic call runs as follows: under setting [1], “inactive; negative”; under setting [2], “inactive; negative”; under setting [3], “inactive; negative”; under setting [4], “inactive; negative”; under setting [5], “inactive; negative”; under setting [6], “inactive; negative”. In addition, the mutagenic call by setting is: under setting [7], “inactive; negative”; under setting [8], “inactive; negative”; under setting [9], “inactive; negative”; under setting [10], “inactive; negative”.

Take `CS(=N)(=O)CCC(N)C(=O)O` (centres undefined): the mutagenic call was “inactive; negative” (Test System: AMES SALMONELLA TYPHIMURIUM, Strain/Indicator: TA102, Metabolic Activation: NONE, Method: STANDARD PLATE) and “inactive; negative” (Test System: AMES SALMONELLA TYPHIMURIUM, Strain/Indicator: TA102, Metabolic Activation: RAT, LIVER, S-9, AROCLOR 1254, Method: STANDARD PLATE).

For `CC(C)c1c(C(=O)Nc2ccccc2)c(-c2ccccc2)c(-c2ccc(F)cc2)n1CC[C@@H](O)C[C@@H](O)CC(=O)O`, the mutagenic call runs as follows: under setting [1], “inactive; negative”; under setting [2], “inactive; negative”; under setting [3], “inactive; negative”; under setting [4], “inactive; negative”; under setting [5], “inactive; negative”; under setting [6], “inactive; negative”. Also, the mutagenic call runs as follows: under setting [7], “inactive; negative”; under setting [8], “inactive; negative”; under setting [9], “inactive; negative”; under setting [10], “inactive; negative”; (Test System: CHINESE HAMSTER V-79, Strain/Indicator: V-79 (HGPRT)/6-THIOGUANINE, Metabolic Activation: NONE) “inactive; negative”; (Test System: CHINESE HAMSTER V-79, Strain/Indicator: V-79 (HGPRT)/6-THIOGUANINE, Metabolic Activation: RAT, LIVER, S-9, AROCLOR 1254) “inactive; negative”. Also, the mutagenic call reads like this: (Test System: E. COLI, Strain/Indicator: WP2 UVRA, Metabolic Activation: NONE, Method: STANDARD PLATE) “inactive; negative”; (Test System: E. COLI, Strain/Indicator: WP2 UVRA, Metabolic Activation: RAT, LIVER, S-9, AROCLOR 1254, Method: STANDARD PLATE) “inactive; negative”.

As to `N#Cc1ccc(C(=O)ON(OCc2ccccc2)C(=O)c2ccccc2)cc1`, the mutagenic call by setting is: under setting [3], “active; positive”; (Test System: AMES SALMONELLA TYPHIMURIUM, Strain/Indicator: TA100, Metabolic Activation: RAT, S-9, AROCLOR, Method: STANDARD PLATE) “active; positive”.

Consider `Cn1c(N=[N+]=[N-])nc2ccccc21`, for which the mutagenic call under setting [1] is “active; positive”.
